In the supplement of paper PMC10307832:

Tests used:
Assay in all cases: relative viability (nuclei count vs DMSO), 5 days (fraction); higher = more cells survive
[1] = compound: O=C(CCCCCCNC(=O)c1cnc(N(c2ccccc2)c2ccccc2)nc1)NO [Ricolinostat] + CC(=O)c1c(C)c2cnc(Nc3ccc(N4CCNCC4)cn3)nc2n(C2CCCC2)c1=O [Palbociclib] (partner 0.5 µM)
Method in brief: (§1)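 Five library-drug doses in √10 steps were combined with a fixed anchor-drug dose, or a single drug was given alone, by pin tool to lung cancer cell lines in 1536-well plates the day after seeding. Nuclei were stained and counted after 5 days. Relative viability is the nuclei count in treated wells over that in vehicle wells, taken as the median of duplicate plates.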

[2] = compound: C1=CC=C(C(=C1)C2=CC=C(C=C2)C3=CSC4=C3C(=C(C(=O)N4)C#N)O)O + CC(=O)c1c(C)c2cnc(Nc3ccc(N4CCNCC4)cn3)nc2n(C2CCCC2)c1=O [Palbociclib] (partner 0.5 µM)
Method in brief: as §1

TGX 221 + Lapatinib = compound: CC1=CN2C(=O)C=C(N=C2C(=C1)C(C)NC3=CC=CC=C3)N4CCOCC4 [TGX 221] + CS(=O)(=O)CCNCc1ccc(-c2ccc3ncnc(Nc4ccc(OCc5cccc(F)c5)c(Cl)c4)c3c2)o1 [Lapatinib] (partner 2 µM)
Method in brief: as §1

Ricolinostat + OSI-027 = compound: O=C(CCCCCCNC(=O)c1cnc(N(c2ccccc2)c2ccccc2)nc1)NO [Ricolinostat] + COc1cccc2cc(-c3nc([C@H]4CC[C@H](C(=O)O)CC4)n4ncnc(N)c34)[nH]c12 [OSI-027] (partner 0.5 µM)
Method in brief: as §1

TGX 221 + Palbociclib = compound: CC1=CN2C(=O)C=C(N=C2C(=C1)C(C)NC3=CC=CC=C3)N4CCOCC4 [TGX 221] + CC(=O)c1c(C)c2cnc(Nc3ccc(N4CCNCC4)cn3)nc2n(C2CCCC2)c1=O [Palbociclib] (partner 0.5 µM)
Method in brief: as §1

## NCI-H1792
[1]; first compound 0.253 µM
  relative viability: 0.635
[1]; first compound 0.8 µM
  relative viability: 0.684
[1]; first compound 2.53 µM
  relative viability: 0.742
[2]; first compound 0.253 µM
  relative viability: 0.65
[2]; first compound 2.53 µM
  relative viability: 0.895
[2]; first compound 8 µM
  relative viability: 0.355
TGX 221 + Lapatinib; first compound 0.08 µM
  relative viability: 0.782
TGX 221 + Lapatinib; first compound 0.253 µM
  relative viability: 0.983
TGX 221 + Lapatinib; first compound 0.8 µM
  relative viability: 0.814
TGX 221 + Lapatinib; first compound 2.53 µM
  relative viability: 0.846
TGX 221 + Lapatinib; first compound 8 µM
  relative viability: 0.887
Ricolinostat + OSI-027; first compound 0.253 µM
  relative viability: 0.709
Ricolinostat + OSI-027; first compound 0.8 µM
  relative viability: 0.693
Ricolinostat + OSI-027; first compound 2.53 µM
  relative viability: 0.759
TGX 221 + Palbociclib; first compound 0.08 µM
  relative viability: 0.593
TGX 221 + Palbociclib; first compound 0.253 µM
  relative viability: 0.625
TGX 221 + Palbociclib; first compound 0.8 µM
  relative viability: 0.654
TGX 221 + Palbociclib; first compound 2.53 µM
  relative viability: 0.57
TGX 221 + Palbociclib; first compound 8 µM
  relative viability: 0.582
